Assay results: patent US7179461B2, “Plasminogen activator to prevent corneal and subepithelial haze after laser vision correction surgery” (The Johns Hopkins University, priority 2000, dated 2007)
Like-named read-outs stand apart in the source and are kept apart here. Values belong to the compound of their own block, whether it stands above or below them.

Columns and labels:
corneal haze after PRK = details: rabbits, excimer laser PRK; cited from earlier work
[1] = target: T1, urokinase-type plasminogen activator (uPA) in rabbit tears (Oryctolagus cuniculus, UniProt Q8MHY7); assay: Plasminogen activator activity in rabbit tears after PRK, spectrophotometric method with human plasminogen and S-2251; format: in vivo, New Zealand rabbits
T1 construct: from tissue; host or cells: rabbit tear fluid collected with glass capillaries
Experimental: Both eyes in each of 8 rabbits underwent PRK treatment. One eye of each rabbit was treated with a serine protease inhibitor (SPI) over the first 7 days to inactivate uPA in the tears and on the surface of the cornea. uPA in the tear samples was measured by a spectrophotometric method using human plasminogen and chromogenic peptide substrate S-2251.
Materials and Methods Sixteen eyes of eight normal healthy New Zealand rabbits (3.0–3.5 kg) underwent PRK surgery for spherical correction using the Schwind Keratom II ArF excimer laser (193 nm), performed by the same surgeon at Vital-Laser LLC, Department of Ophthalmology, University Medical School of Debrecen. Animals were handled and treated in adherence to the ARVO Statement for the Use of Animals in Ophthalmic and Vision Research. De-epithelialization was performed with a blunt Keratome Blade knife after epithelial marking with a 6.0–6.5 mm Hoffer trephine. The epithelium was scraped gently from periphery to center. Residual epithelial debris was removed with a sterile microsponge.
Topical anesthetic (0.4% oxybuprocaine hydrochloride) eye drops were administered twice before the surgery. General anesthesia was accomplished by intravenous injection of ketamine-xylazine (2.2:1 ratio, 10 mg/kg). The PRK surgeries were performed on the morning of day 1. The postoperative treatment included antibiotic eye drops, Ciloxan (Alcon), twelve times (hourly) on day 1 and five times (every two hours) on five additional days (postoperative days 2–5 and 7). FLUCON™ (Alcon) and TEARS NATURALE™ (Alcon) were given 5 times daily (every two hours) during the first postoperative month, reduced to 4 times daily (every three hours) for the second month and 3 times daily (every four hours) for the third month. All rabbits received follow-up examinations at 1, 3 and 6 months following the PRK procedure.
In addition, the left eye of each rabbit received 1 drop of 10,000 KIE/ml serine protease inhibitor (SPI), aprotinin (Gordox, Richter Gideon Rt., Budapest), twelve times (hourly) on day 1 and five times (every two hours) on five additional days (postoperative days 2–5 and 7). This was designated the “With-SPI” group. The right eyes were not treated with SPI and were designated the “No-SPI” group. After the seventh day, identical treatment was used on both eyes. No other treatment was used during the six month follow-up period. […] Lottenberg R, Sjak-Shie N, Fazleabas A T, Roberts R M. Aprotinin inhibits urokinase but not tissue-type plasminogen activator. Thromb Res 1988;49:549–556; and Fritz H, Wunderer G. Biochemistry and applications of aprotinin, the kallikrein inhibitor from bovine organs. Arzneim Forsch 1983;33:479–494.
Tear samples for plasminogen activator activity analyses were obtained on the day before the PRK surgery (day 0). Tear samples were collected within minutes after PRK (day 1), before treatment with any eye drops. Daily on postoperative days 2–5, on postoperative day 7 and every fourth day thereafter for three months (91 days), tears were sampled in the morning prior to the administration of any eye drops on the given day so that SPI treatment would not change the uPA levels.
Samples consisted of tears collected with glass capillaries using i.m. injection of pilocarpine hydrochloride (5 mg/kg) for stimulation. Tears were taken from the lower tear meniscus and care was taken not to touch the conjunctiva. The same collection method was used throughout the study. The duration of the sampling time was recorded and the secretion rate was calculated in μl/min, dividing the obtained tear volume by the time of sample collection. Samples used in this investigation had secretion rates of 15–50 μl/min. Samples were centrifuged (1800 rpm) for 8–10 minutes right after sample collection and supernatants were immediately deep-frozen at −80° C. and were thawed only once for measurements. […]

[2] = target: urokinase-type plasminogen activator (Homo sapiens, UniProt P00749); details: cited from earlier work
[3] = tested on: rabbit corneal endothelium; details: perfused in vitro for three hours, concentrations up to 5,000 IU/ml; cited from earlier work

T1 sequence (Q8MHY7 17-433): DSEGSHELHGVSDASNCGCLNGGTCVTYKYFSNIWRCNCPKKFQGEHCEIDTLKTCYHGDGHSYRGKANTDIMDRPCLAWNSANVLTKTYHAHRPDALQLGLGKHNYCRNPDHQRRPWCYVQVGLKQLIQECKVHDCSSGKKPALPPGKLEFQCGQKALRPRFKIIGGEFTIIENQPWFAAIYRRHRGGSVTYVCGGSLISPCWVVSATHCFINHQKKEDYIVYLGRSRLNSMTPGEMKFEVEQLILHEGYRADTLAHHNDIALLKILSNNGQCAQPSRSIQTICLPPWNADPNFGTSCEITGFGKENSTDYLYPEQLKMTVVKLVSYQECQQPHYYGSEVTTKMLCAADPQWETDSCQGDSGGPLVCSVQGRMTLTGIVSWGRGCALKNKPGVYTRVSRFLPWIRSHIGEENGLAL

Compound: CO[C@@]12[C@H](COC(N)=O)C3=C(C(=O)C(C)=C(N)C3=O)N1C[C@@H]1N[C@@H]12 [mitomycin C]
- Effect on corneal haze after PRK (corneal haze after PRK): reduce haze after PRK

- Day by which mean uPA levels returned to preoperative levels ([1]; SPI-treated rabbit eyes, SPI over first 7 days): 15 days
- uPA activity, mean value averaged over days 1–7 ([1]; SPI-treated rabbit eyes, period of SPI suppression): 0.13 (0.15) IU/ml
- Mean uPA activity on days 1–7 lower than the equilibrium plasminogen activator activity level ([1]; SPI-treated rabbit eyes, versus days 19–91 level, p<0.001): 95%
- PAA: With-SPI, mean (SD), equilibrium level ([1]; averaged over days 19–91, rabbit tears): 2.88 (0.22) IU/ml
- PAA: With-SPI, mean (SD) ([1]; day 0 (day before PRK, before SPI), rabbit tears, 8 eyes): 2.77 (0.26) IU/ml
- PAA: With-SPI, mean (SD) ([1]; day 1 (within minutes after PRK, before eye drops), rabbit tears): 0.42 (0.47) IU/ml
- PAA: With-SPI, mean (SD) ([1]; day 2, rabbit tears, sampled in the morning before SPI drops, 10,000 KIE/ml SPI): 0.18 (0.21) IU/ml
- PAA: With-SPI, mean (SD) ([1]; day 3, rabbit tears, sampled before SPI drops): 0.04 (0.03) IU/ml
- PAA: With-SPI, mean (SD) ([1]; day 4, rabbit tears, sampled before SPI drops): 0.03 (0.04) IU/ml
- PAA: With-SPI, mean (SD) ([1]; day 5, rabbit tears, sampled before SPI drops): 0.05 (0.05) IU/ml
- PAA: With-SPI, mean (SD) ([1]; day 7, rabbit tears, sampled before SPI drops): 0.05 (0.04) IU/ml
- PAA: With-SPI, mean (SD) ([1]; day 11 (after end of SPI treatment), rabbit tears): 2.63 (0.18) IU/ml
- PAA: With-SPI, mean (SD) ([1]; day 15, rabbit tears): 2.76 (0.18) IU/ml
Compound: aprotinin [SPI]
- Inhibition of plasminogen activator (urokinase) activity [2]: effective inhibitor of plasminogen activator activity
- Inhibition of plasminogen activator (urokinase) activity ([2]; listed as Aprotinin): especially effective for inhibiting urokinase

Compound: urokinase
- Endothelial mosaic under scanning electron microscopic scrutiny [3]: retains a normal endothelial mosaic
- Swelling of rabbit corneas [3]: does not induce meaningful swelling
- Toxicity to rabbit corneal endothelium [3]: non-toxic
